Measured values as given in US9856279B2 (AGIOS PHARMACEUTICALS, INC, priority 2011, dated 2018).
pIC50: −log10 of the molar value.

Biological target: IDH1 R132H (Homo sapiens, UniProt O75874, R132H)
Experiment: Assay for IDH1 R132H inhibitors (NADPH/aKG, resazurin detection)
Assay type: biochemical
Details: Table 3; enzyme assay, 50 minutes at room temperature; read-out: IC50 (IDH1 R132H Inhibition)
How it was run: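 Read-out is resorufin fluorescence (Ex544/Em590) 5 min after adding a 30 μM resazurin detection mix. Before that, mutant enzyme (0.2 μg/ml in its mix) ran 50 min at room temperature with compound, 8 uM NADPH and 2 mM aKG (mix levels) in Tris pH 7.5 with NaCl, MgCl2, BSA.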

Sequence of IDH1 R132H (O75874 whole entry R132H): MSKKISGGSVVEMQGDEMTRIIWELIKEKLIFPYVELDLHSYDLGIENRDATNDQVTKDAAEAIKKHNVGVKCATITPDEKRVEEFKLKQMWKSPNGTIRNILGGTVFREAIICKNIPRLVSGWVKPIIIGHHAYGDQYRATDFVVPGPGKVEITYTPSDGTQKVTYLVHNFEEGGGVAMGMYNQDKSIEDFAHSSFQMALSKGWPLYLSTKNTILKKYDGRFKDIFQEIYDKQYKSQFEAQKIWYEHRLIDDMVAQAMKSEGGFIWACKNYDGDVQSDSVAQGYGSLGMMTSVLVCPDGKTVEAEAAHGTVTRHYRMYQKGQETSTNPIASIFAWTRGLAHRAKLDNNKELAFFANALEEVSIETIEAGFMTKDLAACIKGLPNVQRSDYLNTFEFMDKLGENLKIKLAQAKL

Row | SMILES | pIC50
1 | CC(C)c1cc(-c2ccccc2O)c(C#N)c(N2CCN(C(=O)c3ccoc3)[C@H](C)C2)n1 [Compound 157, (R)-2-(4-(furan-3-carbonyl)-3-methylpiperazin-1-yl)-4-(2-hydroxyphenyl)-6-isopropylnicotinonitrile] | 4.82 to 5.30
2 | CC(C)c1cc(-c2ccccc2)c(C#N)c(N2CCN(C(=O)c3ccoc3)C(c3ccccc3)C2)n1 (stereo not shown) [Compound 154, 2-(4-(furan-3-carbonyl)-3-phenylpiperazin-1-yl)-6-isopropyl-4-phenylnicotinonitrile] | 4.82 to 5.30
3 | COc1cccc(-c2cc(C(C)C)nc(N3CCN(C(=O)c4ccoc4)[C@H](C)C3)c2C#N)c1 [Compound 151, (R)-2-(4-(furan-3-carbonyl)-3-methylpiperazin-1-yl)-6-isopropyl-4-(3-methoxyphenyl)nicotinonitrile] | 5.30 to 6.00
4 | COCCC(=O)N1CCN(c2nc(C3CC3)c(-c3ccc(C)c(F)c3)c(C)c2C#N)C[C@H]1C [Compound 258, (R)-6-cyclopropyl-5-(3-fluoro-4-methylphenyl)-2-(4-(3-methoxypropanoyl)-3-methylpiperazin-1-yl)-4-methylnicotinonitrile] | ≥ 6.00
5 | CC(C)c1cc(-c2ccccc2)c(C#N)c(N2CCN(C(=O)Cc3ccccc3)[C@@H](C)C2)n1 [Compound 133, (S)-6-isopropyl-2-(3-methyl-4-(2-phenylacetyl)piperazin-1-yl)-4-phenylnicotinonitrile] | 5.30 to 6.00
6 | CC(C)c1nc(N2C[C@@H](C)N(C(=O)Cc3ccccc3)[C@@H](C)C2)c(C#N)cc1-c1ccccc1 [Compound 140, 2-((3S,5R)-3,5-dimethyl-4-(2-phenylacetyl)piperazin-1-yl)-6-isopropyl-5-phenylnicotinonitrile] | 5.30 to 6.00
7 | CC(C)c1cc(-c2ccccc2)nc(N2CCN(C(=O)c3ccco3)CC2)c1C#N [Compound 103, 2-(4-(furan-2-carbonyl)piperazin-1-yl)-4-isopropyl-6-phenylnicotinonitrile] | 4.82 to 5.30
8 | CC(C)c1cc(-c2ccccc2)c(C#N)c(N2CCN(C(=O)c3ccoc3)CC2c2ccccc2)n1 (stereo not shown) [Compound 160, 2-(4-(furan-3-carbonyl)-2-phenylpiperazin-1-yl)-6-isopropyl-4-phenylnicotinonitrile] | 4.82 to 5.30

Further lines, results first:

Row | pIC50 | SMILES
9 | 5.30 to 6.00 | CC(=O)Oc1ccccc1-c1cc(C(C)C)nc(N2CCN(C(=O)c3ccoc3)[C@H](C)C2)c1C#N [Compound 162, (R)-2-(3-cyano-2-(4-(furan-3-carbonyl)-3-methylpiperazin-1-yl)-6-isopropylpyridin-4-yl)phenylacetate]
10 | 5.30 to 6.00 | Cc1occc1C(=O)N1CCN(c2nc(C(C)C)c(-c3ccoc3)cc2C#N)C[C@H]1C [Compound 203, (R)-5-(furan-3-yl)-6-isopropyl-2-(3-methyl-4-(2-methylfuran-3-carbonyl)piperazin-1-yl)nicotinonitrile]
11 | 5.30 to 6.00 | CCc1ccc(-c2cc(C#N)c(N3CCN(C(=O)CCOC)[C@H](C)C3)nc2C(C)C)cc1 [Compound 216, 5-(4-ethylphenyl)-6-isopropyl-2-(4-(3-methoxypropanoyl)-3-methylpiperazin-1-yl)nicotinonitrile]
12 | 5.30 to 6.00 | COCCC(=O)N1CCN(c2nc(C(C)C)c(-c3ccccc3OC)cc2C#N)C[C@H]1C [Compound 183, (R)-6-isopropyl-5-(2-methoxyphenyl)-2-(4-(3-methoxypropanoyl)-3-methylpiperazin-1-yl)nicotinonitrile]
13 | 5.30 to 6.00 | CC(C)c1nc(N2CCN(C(=O)c3ccco3)[C@H](C)C2)c(C#N)cc1-c1ccc(C(F)(F)F)cc1 [Compound 185, (R)-2-(4-(furan-2-carbonyl)-3-methylpiperazin-1-yl)-6-isopropyl-5-(4-(trifluoromethyl)phenyl) nicotinonitrile]
14 | 5.30 to 6.00 | COc1ccccc1-c1cc(C#N)c(N2CCN(C(=O)Cc3cccs3)[C@H](C)C2)nc1C(C)C [Compound 177, (R)-6-isopropyl-5-(2-methoxyphenyl)-2-(3-methyl-4-(2-(thiophen-2-yl)acetyl)piperazin-1-yl)nicotinonitril-e]
15 | ≥ 6.00 | COCCC(=O)N1CCN(c2nc(C3CC3)c(-c3ccccc3F)cc2C#N)C[C@H]1C [Compound 249, (R)-6-cyclopropyl-5-(2-fluorophenyl)-2-(4-(3-methoxypropanoyl)-3-methylpiperazin-1-yl)nicotinonitrile]

Same assay, conditions: enzyme assay of Example 12; read-out: IDH1R132H IC50

Row | SMILES | pIC50
16 | N#Cc1cc(-c2cnn(CC(N)=O)c2)c(C2CC2)nc1N1CCN(C(=O)C2CC2)[C@H](C2CC2)C1 [Compound 501, (R)-2-(4-(5-cyano-6-(4-(cyclopropanecarbonyl)-3-cyclopropylpiperazin-1-yl)-2-cyclopropylpyridin-3-yl)-1H-pyrazol-1-yl)acetamide] | 6.00 to 6.30
17 | N#Cc1cc(-c2cnn(CCO)c2)c(C2CC2)nc1N1CCN(C(=O)C2CC2)[C@H](C2CC2)C1 [Compound 490, (R)-2-(4-(cyclopropanecarbonyl)-3-cyclopropylpiperazin-1-yl)-6-cyclopropyl-5-(1-(2-hydroxyethyl)-1H-pyrazol-4-yl)nicotinonitrile] | 6.00 to 6.30
18 | N#Cc1cc(-c2ccc3[nH]ncc3c2)c(C2CC2)nc1N1CCN(C(=O)CC(F)(F)F)[C@H](C2CC2)C1 [Compound 552] | > 6.30
19 | N#Cc1cc(-c2cc(C#N)c(N3CCN(C(=O)C4CC4)[C@H](C4CC4)C3)nc2C2CC2)cnn1 [Compound 641, (R)-5-(5-cyano-6-(4-(cyclopropanecarbonyl)-3-cyclopropylpiperazin-1-yl)-2-cyclopropylpyridin-3-yl)pyridazine-3-carbonitrile] | > 6.30
20 | N#Cc1cc(-c2cccc3cnccc23)c(C2CC2)nc1N1CCN(C(=O)C2CC2)C(C(F)F)C1 (stereo not shown) [Compound 422, 2-(4-(cyclopropanecarbonyl)-3-(difluoromethyl)piperazin-1-yl)-6-cyclopropyl-5-(isoquinolin-5-yl)nicotinonitrile] | 6.00 to 6.30
21 | N#Cc1cc(-c2ccnc(NCCO)n2)c(C2CC2)nc1N1CCN(C(=O)C2CC2)[C@H](C2CC2)C1 [Compound 512, (R)-2-(4-(cyclopropanecarbonyl)-3-cyclopropylpiperazin-1-yl)-6-cyclopropyl-5-(2-(2-hydroxyethylamino)pyrimidin-4-yl)nicotinonitrile] | > 6.30

Next, values leading:

Row | pIC50 | SMILES
22 | 6.00 to 6.30 | CNc1cccc(-c2cc(C#N)c(N3CCN(C(=O)CCOC)[C@H](C)C3)nc2C2CC2)c1 [Compound 414, (R)-6-cyclopropyl-2-(4-(3-methoxypropanoyl)-3-methylpiperazin-1-yl)-5-(3-(methylamino)phenyl)nicotinonitrile]
23 | 6.00 to 6.30 | COCCC(=O)N1CCN(c2nc(C3CC3)c(-c3ccc(F)cc3)c(COC)c2C#N)C[C@H]1C [Compound 298, (R)-6-cyclopropyl-5-(4-fluorophenyl)-4-(methoxymethyl)-2-(4-(3-methoxypropanoyl)-3-methylpiperazin-1-yl)nicotinonitrile]
24 | > 6.30 | C=Cc1nc(-c2cc(C#N)c(N3CCN(C(=O)CCOC)[C@H](C)C3)nc2C2CC2)ncc1F [Compound 601, (R)-6-cyclopropyl-5-(5-fluoro-4-vinylpyrimidin-2-yl)-2-(4-(3-methoxypropanoyl)-3-methylpiperazin-1-yl)nicotinonitrile]
25 | 6.00 to 6.30 | COCCC(=O)N1CCN(c2nc(C3CC3)c(-c3cccc(NS(=O)(=O)CCl)c3)cc2C#N)C[C@H]1C [Compound 404, (R)-1-chloro-N-(3-(5-cyano-2-cyclopropyl-6-(4-(3-methoxypropanoyl)-3-methylpiperazin-1-yl)pyridin-3-yl)phenyl)methanesulfonamide]
